In patent publication US11555210B2, “Microbe having increased tolerance to phenolic fermentation inhibitors” (University of Ottawa, priority 2018, dated 2023):

Columns and labels:
[1] = tested on: bna7Δ (YKB4649); assay: automated growth curve analysis in YPD liquid medium; assay type: cell-based, S. cerevisiae; conditions: 10 mM ferulic acid, 30° C., 72 hr
Experimental: The agar-based chemogenomic screen was confirmed by measuring the growth rate of the identified mutants in liquid YPD medium supplemented with the phenolic compounds. Briefly, overnight cultures of the mutant strains were inoculated into fresh YPD medium and strains were incubated at 30° C. until they reached the mid log phase ([…] 0.5-0.6), prior to being diluted to a final OD600 of 0.1 in a BioScreen CTM Honeycomb microplate. The growth assays were performed for each mutant in triplicate in YPD alone (control) or YPD medium supplemented with ferulic acid, 4-hydroxybenzoic acid or coniferyl aldehyde. Using a BioScreen CTM plate reader, the cultures were incubated at 30° C. for 72 hours and OD600 readings were taken every 15 min to plot growth curves. Data from the BioScreen CTM were analyzed with the PRECOG software (Fernandez-Ricaud et al., […], Nucleic acids research. 41, W591-6) to obtain the doubling time of all the strains. A PRECOG score for each of the strains tested was calculated as the ratio of the doubling time in the presence of the phenolic to the doubling time in the absence of these phenolic compounds. Using a cut-off PRECOG score of >2 and <0.4 strains were identified that were sensitive or tolerant, respectively, to the phenolic compounds. […]

[2] = tested on: bna7Δ (YKB4649); assay: serial dilution spot assay on YPD agar plates; assay type: cell-based, S. cerevisiae; conditions: 10 mM FA, 35 mM 4-HBA or 1 mM CA, 48 hr at 30° C.
Experimental: (§1) In addition, deletion mutants were generated for genes involved in the tryptophan catabolic pathway and their growth was assayed on solid media containing 10 mM ferulic acid. In particular, wild type yeast (BY4741) along with deletion mutants aro8Δ (YKB4799), bna7Δ (YKB4649), bna2Δ (YKB4798), bna6Δ (YKB4844), bna5Δ (YKB4845), bna4Δ (YKB4846) and bna1Δ (YKB4729) were grown to mid log phase ([…] 0.5-0.6) in YPD medium prior to being diluted to an OD600 of 0.1. Four 10-fold serial dilutions were spotted onto YPD agar plates either containing 10 mM ferulic acid or no ferulic acid. Plates were incubated for 48 hr at 30° C. Images of the plates were taken with the ChemiDoc XRS Molecular Imaging system (Biorad) and images are representative of three biological replicates.
Experiments were also conducted to determine if deletion of BNA7 could provide protection to 4-hydroxybenzoic acid or coniferyl aldehyde (CA). Wild type (BY4741) and bna7A (YKB4649) strains were grown to mid log phase in YPD medium prior to being diluted into fresh medium to an OD600 of 0.1. Four 10-fold serial dilutions were spotted onto YPD agar plates containing either no compound (Untreated), 10 mM ferulic acid (FA), 35 mM 4-hydroxybenzoic acid (4-HBA) or 1 mM coniferyl aldehyde (CA). Plates were incubated for 48 hr at 30° C. and images are representative of three biological replicates.

[3] = tested on: mutants aro8Δ, bna2Δ, bna6Δ, bna5Δ, bna4Δ and bna1Δ; assay: serial dilution spot assay on YPD agar plates; assay type: cell-based, S. cerevisiae; conditions: 10 mM ferulic acid, 48 hr at 30° C.
Experimental: as §1

[4] = tested on: wild-type yeast (BY4741); assay: ROS measurement by H2DCFDA fluorescence microscopy; assay type: cell-based, S. cerevisiae; conditions: 2 mM CA, 1 hour at 30° C.; for subcellular distribution of induced ROS: 10 mM FA or 50 mM 4-HBA
Experimental: Measurement of ROS was performed as previously described (Kennedy et al., 2016, Sci Rep. 6, 19332). Briefly cells were incubated with 10 μM 2′,7′-dichlorodihydrofluorescein diacetate (H2DCFDA; Invitrogen cat. #D399) for 15 min in the dark. […] An aliquot of 5 μL was spotted onto glass slides and covered with a cover slip prior to imaging. All images were acquired using a Leica DMI 6000 florescent microscope (Leica Microsystems GmbH, Wetzler Germany), equipped with a Sutter DG4 light source (Sutter Instruments, California, USA), Ludl emission filter wheel with Chroma band pass emission filters (Ludl Electronic Products Ltd., NY, USA) and Hamamatsu Orca AG camera (Hamamatsu Photonics, Herrsching am Ammersee, Germany). Images were acquired at 0.2 μm steps across 6 μm using a 63× oil-immersion objective with a 1.4 numerical aperture. Analysis of H2DCFDA fluorescence was performed using Velocity Software V4 (Perkin Elmer). Image J software was used to quantify the H2DCFDA fluorescence signal in cells as described by Schneider et al (Schneider et al., 2012, Nature Methods, 9, 671-675) with a slight modification. Briefly, background fluorescence was subtracted from the images and the total fluorescence of all the cells in the image was measured and divided by the number of cells in the image. The images contained a minimum of 100 cells. The ratio of fluorescence per cell of treated cultures was divided by that of untreated cultures to eliminate background endogenous ROS production.

[5] = tested on: bna7Δ cells; assay: ROS measurement by H2DCFDA fluorescence microscopy; assay type: cell-based, S. cerevisiae; conditions: 10 mM ferulic acid for 2 hr; not statistically significant (ρ=0.756)
Experimental: For all microscopy experiments overnight cultures of wild-type yeast grown at 30° C. were re-suspended at an OD600 of 0.1 in YPD medium and allowed to reach mid-log phase prior to imaging. Measurement of ROS was performed as previously described (Kennedy et al., 2016, Sci Rep. 6, 19332). Briefly cells were incubated with 10 μM 2′,7′-dichlorodihydrofluorescein diacetate (H2DCFDA; Invitrogen cat. #D399) for 15 min in the dark. Cells were washed in sterile PBS to remove traces of the dye after which they were re-suspended in YPD medium alone, or YPD supplemented with either 2 mM coniferyl aldehyde, […]
Analysis of H2DCFDA fluorescence was performed using Velocity Software V4 (Perkin Elmer). Image J software was used to quantify the H2DCFDA fluorescence signal in cells as described by Schneider et al (Schneider et al., 2012, Nature Methods, 9, 671-675) with a slight modification. Briefly, background fluorescence was subtracted from the images and the total fluorescence of all the cells in the image was measured and divided by the number of cells in the image. […] The ratio of fluorescence per cell of treated cultures was divided by that of untreated cultures to eliminate background endogenous ROS production. […]

[6] = tested on: Zwf1-GFP; assay: Zwf1-GFP fluorescence microscopy; assay type: cell-based, S. cerevisiae; conditions: 2 mM CA for 120 min at 30° C. (ρ=9.69E-5); ferulic acid 10 mM
Experimental: For the microscopy studies, wild type cells expressing endogenously tagged Zwf1-GFP (YKB4825) were grown to mid log in YPD, prior to being washed and resuspended in YPD medium (Untreated) or YPD medium containing 2 mM coniferyl aldehyde (CA) for 120 min at 30° C. Images (FIG. 8A) are representative of three independent experiments where a minimum of 100 cells each were imaged. Scale bar represents 10 μm.

[7] = tested on: Saccharomyces cerevisiae ethanol red; conditions: commercial Saccharomyces cerevisiae ethanol red; Adeboye et al., 2014; cited from earlier work

| SMILES | growth (OD600) of bna7Δ relative to wild-type [1] | resistance of bna7Δ / protection by deletion of BNA7 [2] | effect of gene deletion on ferulic acid tolerance [3] | subcellular distribution of induced ROS [4] | ROS signal in bna7Δ compared to wild-type [5] | Zwf1-GFP fluorescence signal/cell [6] | concentration at which the compound kills the yeast [7] | ROS formation (H2DCFDA fluorescence) ([4]; 10 mM FA, 50 mM 4-HBA or hydrogen peroxide) |
| --- | --- | --- | --- | --- | --- | --- | --- | --- |
| COc1cc(C=CC(=O)O)ccc1O [ferulic acid, 4-hydroxy-3-methoxycinnamic acid] | increased growth relative to the wild-type strain | resistant | no effect | distributed throughout the cell | slight reduction of ROS | no increase | 5 mM |  |
| OO [hydrogen peroxide] |  |  |  |  |  |  |  | induced the formation of green fluorescence signal throughout the cell |
| O=C(O)c1ccc(O)cc1 [4-hydroxybenzoic acid] |  | does not provide protection |  | distributed throughout the cell |  | no increase | 11 mM |  |
